# Laboratory results: US4642332A, “Effective hormonal peptides: D-3-Pal^6 -LHRH” (The Board of Regents, The University of Texas System, priority 1985, dated 1987)
# Experiments:
# [1] = system: pituitary cells from 21 day old rats; assay: In vitro pituitary incubate assay (release of LH and FSH); type: cell-based, rat; conditions: for FSH ng/ml medium ± SEM / LH ng/ml medium ± SEM: Table V, mean of 9
# Protocol: The data in Tables IV and V are from the in vitro assay of the peptides with the pituitary incubate. This assay measures the release of LH and FSH in an in vitro system with pituitary cells from 21 day old rats. See, Bowers, C. Y. et al. on the inhibitory effects of leutinizing hormone releasing hormone analogs. Endocrinology, 106: 674 (1980).
# The abbreviations are as follows: sc-subcutaneous, SEM-standard error of the mean; NS-not significant; ng-nanogram, and ml-milliliter. The p value represents the population coefficient .rho.(rho) which signifies whether a sample coefficient is significant or a chance deviation from zero.
# 21 day old female rats = assay: In vivo assay in rats for release of LH and FSH; design: species or system rat
# Protocol: In vivo rat assay performed by a modification of the method of Bowers, C. Y. et al. Endocrinology, 106, 674 (1980). 21 day old female rats were injected sc with saline or peptide. Blood samples for the RIAs of LH and FSH were collected at +15, +60, +120, or +180 minutes. (Tables VI-XI).
# men = conditions: in men, after chronic administration; cited from earlier work
# [2] = system: advanced prostatic carcinoma; design: clinical effect in patients with urinary obstruction: dose or concentration left out as unconfirmed; conditions: subcutaneously, cited from earlier work
# [3] = Table XI, 150 ng sc, +2 hrs, mean 5-6
# [4] = Table XI, 150 ng sc, +3 hrs, mean 5-6
smiles,measurement,setting,value
"CC(C)C[C@H](NC(=O)[C@@H](Cc1c[nH]c2ccccc12)NC(=O)[C@H](Cc1ccc(O)cc1)NC(=O)[C@H](CO)NC(=O)[C@H](Cc1c[nH]c2ccccc12)NC(=O)[C@H](Cc1c[nH]cn1)NC(=O)[C@@H]1CCC(=O)N1)C(=O)N[C@@H](CCCNC(=N)N)C(=O)N1CCC[C@H]1C(=O)NCC(N)=O [D-Trp^6 -LHRH, pyroGlu--His--Trp--Ser--Tyr--D-Trp--Leu--Arg--Pro--Gly--NH2]",FSH ng/ml medium ± SEM,[1]; dosage .01 ng/ml medium,450 ± 64 ng/mL
same,LH ng/ml medium ± SEM,[1]; dosage .01 ng/ml medium,68 ± 31 ng/mL
same,FSH ng/ml medium ± SEM,[1]; dosage .03 ng/ml medium,929 ± 207 ng/mL
same,LH ng/ml medium ± SEM,[1]; dosage .03 ng/ml medium,209 ± 74 ng/mL
same,FSH ng/ml medium ± SEM,[1]; dosage .10 ng/ml medium,1714 ± 224 ng/mL
same,LH ng/ml medium ± SEM,[1]; dosage .10 ng/ml medium,646 ± 69 ng/mL
same,"potency, D-Qal^6 -LHRH compared with D-Trp^6 -LHRH","[1]; comparable assays, statement in words",essentially equipotent
same,LH ng/ml Serum ± SEM ± 60 min,"21 day old female rats; Table VII, dosage 10 mg/rat sc (so in the source)",31 ± 6 ng/mL
same,LH ng/ml Serum ± SEM ± 15 min,"21 day old female rats; Table VII, dosage 100 mg/rat sc (so in the source), ± 15 min",51 ± 10 ng/mL
same,LH ng/ml Serum ± SEM ± 60 min,"21 day old female rats; Table VII, dosage 100 mg/rat sc (so in the source)",259 ± 34 ng/mL
same,+2 hrs LH ± SEM ng/ml serum,21 day old female rats; [3],230 ± 41 ng/mL
same,FSH ± SEM ng/ml serum (+2 hrs),21 day old female rats; [3],2332 ± 388 ng/mL
same,+3 hrs LH ± SEM ng/ml serum,21 day old female rats; [4],117 ± 9 ng/mL
same,FSH ± SEM ng/ml serum (+3 hrs),21 day old female rats; [4],2065 ± 151 ng/mL
same,Leydig cell function,men,suppression of Leydig cell function
same,"serum levels of testosterone, dihydrotestosterone and estradiol",men,decreases
same,clinical effect in patients with urinary obstruction,[2]; daily doses (so in the source),noticeable clinical improvement
same,pain from bone metastases in patients with more advanced prostatic disease,"[2]; daily doses of 100 g and 50 g, respectively (so in the source)",relieved
